Reference: patent publication US8987314B2, “Amide, urea or sulfone amide linked benzothiazole inhibitors of endothelial lipase” (Bristol-Myers Squibb Company, priority 2012, dated 2015)
Where two headings read alike, the source gives them in different places.

Experiments:
Endothelial lipase (EL) = Endothelial lipase (EL) (Homo sapiens (Human), UniProt Q9Y5X9); experiment: EL assay: endothelial lipase activity with fluorescent substrate A10070 in DMPG vesicles; type: biochemical
Procedure, shortened: (§1)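 Substrate A10070 sits in sonicated DMPG vesicles at 0.11 mole fraction. Lipase and compound preincubated 30 min, 37° C, in HEPES pH 8.0 buffer with CaCl2.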

hepatic lipase (HL) = hepatic lipase (HL) (Homo sapiens (Human), UniProt P11150); experiment: HL assay: hepatic lipase activity with fluorescent substrate A10070 in DMPG vesicles; type: biochemical
Procedure, shortened: as §1

[1] = EL from conditioned media of HT-1080 cells, 30 min incubation with compound at 37° C., A10070/DMPG vesicles
[2] = HL partially purified from conditioned media of COS cells, 30 min incubation with compound at 37° C., A10070/DMPG vesicles

Endothelial lipase (EL), sequence (Q9Y5X9 21-500): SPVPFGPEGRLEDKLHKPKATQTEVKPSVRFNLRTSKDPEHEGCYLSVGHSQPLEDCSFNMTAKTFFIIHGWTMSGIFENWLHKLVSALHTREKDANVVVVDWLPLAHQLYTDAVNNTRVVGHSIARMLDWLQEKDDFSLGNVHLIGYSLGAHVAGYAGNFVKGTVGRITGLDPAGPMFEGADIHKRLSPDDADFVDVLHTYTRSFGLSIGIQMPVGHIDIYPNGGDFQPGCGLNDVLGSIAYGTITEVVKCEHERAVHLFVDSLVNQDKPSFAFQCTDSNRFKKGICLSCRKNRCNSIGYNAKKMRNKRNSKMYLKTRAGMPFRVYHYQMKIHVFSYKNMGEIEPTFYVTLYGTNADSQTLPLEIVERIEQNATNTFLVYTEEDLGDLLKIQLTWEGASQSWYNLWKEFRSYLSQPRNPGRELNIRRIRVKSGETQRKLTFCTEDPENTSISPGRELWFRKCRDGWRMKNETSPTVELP
hepatic lipase (HL), sequence (P11150 23-499, species assumed): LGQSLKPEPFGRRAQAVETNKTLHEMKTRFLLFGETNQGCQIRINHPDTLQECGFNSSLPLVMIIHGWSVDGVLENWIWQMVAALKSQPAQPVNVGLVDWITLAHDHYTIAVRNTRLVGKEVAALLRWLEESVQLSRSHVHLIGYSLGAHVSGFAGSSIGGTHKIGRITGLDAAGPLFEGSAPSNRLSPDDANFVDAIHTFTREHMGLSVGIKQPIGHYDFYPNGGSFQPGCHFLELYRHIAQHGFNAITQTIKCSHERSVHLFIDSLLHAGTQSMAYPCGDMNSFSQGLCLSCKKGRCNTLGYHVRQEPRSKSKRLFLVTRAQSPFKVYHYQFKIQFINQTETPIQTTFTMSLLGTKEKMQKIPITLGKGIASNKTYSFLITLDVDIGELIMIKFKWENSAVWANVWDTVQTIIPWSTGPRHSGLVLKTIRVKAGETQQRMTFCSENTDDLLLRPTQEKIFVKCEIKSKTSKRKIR

IC50 (Endothelial lipase (EL)) [nM]	IC50 (hepatic lipase (HL)) [nM]	IC50 (Endothelial lipase (EL); [1]) [nM]	IC50 (hepatic lipase (HL); [2]) [nM]	SMILES
1.8	15.5			COCCOc1ccc(-c2ccc3sc(C(C(=O)NCCS(N)(=O)=O)S(C)(=O)=O)nc3c2)cc1 (stereo not drawn) [Example B370, 2-methanesulfonyl-2-{5-[4-(2-methoxyethoxy)phen-yl]-1,3-benzothiazol-2-yl}-N-(2-sulfamoylethyl)a-cetamide]
1.3	194			COCCS(=O)(=O)C(C(=O)NCCS(N)(=O)=O)c1nc2cc(-c3ccc(F)nc3)ccc2s1 (stereo not drawn) [Example B308, 2-[5-(6-fluoropyridin-3-yl)-1,3-benzothiazol-2-yl]-2-(2-methoxyethane-sulfonyl)-N-(2-sulfamoylethyl)acetamide]
6.2	471			CC1(O)CN(C(=O)c2ccc(-c3ccc4nc(C(C(=O)NCCS(N)(=O)=O)S(=O)(=O)Cc5cccc(C(F)(F)F)c5)sc4c3)cc2)C1 (stereo not drawn) [Example B360, 2-{6-[4-(3-hydroxy-3-methylazetidine-1-carbonyl)phenyl]-1,3-benzothiazol-2-yl}-N-(2-sulfamoylethyl)-2-{[3-(trifluoromethyl)phen-yl]methanesulfonyl}a-cetamide]
20.9	140			COCCNC(=O)c1ccc(-c2ccc3nc(C(C(=O)NCCS(N)(=O)=O)S(=O)(=O)Cc4cc(Cl)cc(Cl)c4)sc3c2)cc1 (stereo not drawn) [Example B295, 4-{2-[(3,5-dichlorophen-yl)methanesulfonyl[(2-sulfa-moylethyl)carbamoyl]meth-yl]-1,3-benzothiazol-6-yl}-N-(2-methoxyethyl)ben-zamide]
< 10	< 10			CC1CCN(C(=O)c2ccc(-c3ccc4nc(C(C(=O)NCCS(N)(=O)=O)S(C)(=O)=O)sc4c3)cc2)CC1 (stereo not drawn) [Example B43, 2-(6-{4-[(4-methyl-1-piperidinyl)carbonyl]phen-yl}-1,3-benzothiazol-2-yl)-2-(methylsulfonyl)-N-(2-sulfamoylethyl)a-cetamide]
< 10	68			NS(=O)(=O)CCNC(=O)C(c1nc2ccc(-c3ccnc(F)c3)cc2s1)S(=O)(=O)CCC(F)(F)F (stereo not drawn) [Example B72, 2-(6-(2-fluoro-4-pyridinyl)-1,3-benzothiazol-2-yl)-N-(2-sulfamoylethyl)-2-((3,3,3-trifluoropropyl)sulfonyl)a-cetamide]
< 10	445			NS(=O)(=O)CCNC(=O)C(c1nc2ccc(-c3ccnc(O)c3)cc2s1)S(=O)(=O)CCC(F)(F)F (stereo not drawn) [Example B191, 2-(6-(2-oxo-1,2-dihydro-4-pyridinyl)-1,3-benzothiazol-2-yl)-N-(2-sulfamoylethyl)-2-((3,3,3-trifluoropropyl)sulfonyl)a-cetamide]
0.9	12			COC(C)(C)CNC(=O)c1ccc(-c2ccc3nc(C(C(=O)NCCS(N)(=O)=O)S(=O)(=O)CC4CC4)sc3c2)cc1 (stereo not drawn) [Example B244, 4-(2-{cyclopropylmethane-sulfonyl[(2-sulfamoyl-ethyl)carbamoyl]methyl}-1,3-benzothiazol-6-yl)-N-(2-methoxy-2-methyl-propyl)benzamide]
		109	460	CCNC(=O)CNC(=O)C(c1nc2ccc(-c3ccc(F)nc3)cc2s1)S(=O)(=O)CCOC (stereo not drawn) [Example B397, N-[(ethylcarbamoyl)methyl]-2-[6-(6-fluoropyridin-3-yl)-1,3-benzothiazol-2-yl]-2-(2-methoxyethanesulfonyl)acetamide]
148	3930			NS(=O)(=O)CCNC(=O)C(c1nc2ccc(C(=O)NCCc3c[nH]cn3)cc2s1)S(=O)(=O)CCC(F)(F)F (stereo not drawn) [Example B198, N-(2-(1H-imidazol-4-yl)ethyl)-2-(2-oxo-2-((2-sulfamoylethyl)amino)-1-((3,3,3-trifluoropropyl)sul-fonyl)ethyl)-1,3-benzothiazole-6-carboxamide]
< 10	23			NS(=O)(=O)CCNC(=O)C(c1nc2ccc(-c3ccc(C(=O)N4CCOCC4)cc3)cc2s1)S(=O)(=O)CCC(F)(F)F (stereo not drawn) [Example B108, 2-(6-(4-(4-morpholinyl-carbonyl)phenyl)-1,3-benzothiazol-2-yl)-N-(2-sulfamoylethyl)-2-((3,3,3-trifluoropropyl)sul-fonyl)acetamide]
2.1	155			CS(=O)(=O)C(C(=O)NCCS(N)(=O)=O)c1nc2ccc(-c3ccc(C(=O)NC4CC4)cc3)cc2s1 (stereo not drawn) [Example B216, N-cyclopropyl-4-(2-{methanesulfonyl[(2-sulfa-moylethyl)carbamoyl]meth-yl}-1,3-benzothiazol-6-yl)benzamide]
190	14.7			CS(=O)(=O)C(C(=O)NCc1cccc(S(N)(=O)=O)c1)c1nc2ccc(-c3ccccc3)cc2s1 (stereo not drawn) [Example B256, 2-methanesulfonyl-2-(6-phenyl-1,3-benzothiazol-2-yl)-N-[(3-sulfamoylphen-yl)methyl]acetamide]
13	391			CS(=O)(=O)C(C(=O)NCCS(N)(=O)=O)c1nc2ccc(-c3cnn(CCC4CCOCC4)c3)cc2s1 (stereo not drawn) [Example B317, 2-methanesulfonyl-2-(6-{1-[2-(oxan-4-yl)ethyl]-1H-pyrazol-4-yl}-1,3-benzothiazol-2-yl)-N-(2-sulfamoylethyl)acetamide]
15.6	2.8			Cc1nnc(CNC(=O)C(c2nc3ccc(-c4ccc(C(=O)OC(C)(C)C)cc4)cc3s2)S(C)(=O)=O)s1 (stereo not drawn) [Example B279, tert-butyl 4-{2-[methanesulfonyl({[(5-methyl-1,3,4-thiadiazol-2-yl)methyl]carbamoyl})meth-yl]-1,3-benzothiazol-6-yl}benzoate]
		< 10	13	CS(=O)(=O)C(C(=O)NCCS(N)(=O)=O)c1nc2ccc(-c3ccc(C(=O)N4CC(F)(F)C4)cc3)cc2s1 (stereo not drawn) [Example B166, 2-(6-(4-(3,3-Difluoroazetidine-1-carbonyl)phenyl)benzo[d]thiazol-2-yl)-2-(methylsulfonyl)-N-(2-sulfamoylethyl)acetamide]
< 10	15			N#Cc1cccc(CS(=O)(=O)C(C(=O)NCCS(N)(=O)=O)c2nc3ccc(-c4ccccc4)cc3s2)c1 (stereo not drawn) [Example B120, 2-((3-cyanobenzyl)sul-fonyl)-2-(6-phenyl-1,3-benzothiazol-2-yl)-N-(2-sulfamoylethyl)acetamide]
59	634			COCCS(=O)(=O)C(C(=O)NCc1nnc(C)o1)c1nc2ccc(-c3ccc(C(=O)N4CC(C)(O)C4)cc3)cc2s1 (stereo not drawn) [Example B265, 2-{6-[4-(3-hydroxy-3-methylazetidine-1-carbonyl)phenyl]-1,3-benzothiazol-2-yl}-2-(2-methoxyethanesulfonyl)-N-[(5-methyl-1,3,4-oxadiazol-2-yl)methyl]a-cetamide]
< 10	50			CN1CCOc2cc(-c3ccc4nc(C(C(=O)NCCS(N)(=O)=O)S(C)(=O)=O)sc4c3)ccc21 (stereo not drawn) [Example B61, 2-(6-(4-methyl-3,4-dihydro-2H-1,4-benzoxazin-7-yl)-1,3-benzothiazol-2-yl)-2-(methylsulfonyl)-N-(2-sulfamoylethyl)acetamide]
< 10	20600			CS(=O)(=O)C(C(=O)NCCS(N)(=O)=O)c1nc2ccc(-c3cc(O)ncc3F)cc2s1 (stereo not drawn) [Example B192, 2-(6-(5-fluoro-2-oxo-1,2-dihydro-4-pyridinyl)-1,3-benzothiazol-2-yl)-2-(methylsulfonyl)-N-(2-sulfamoylethyl)acetamide]
		< 10	257	CC(C)(C)NC(=O)c1ccc(-c2ccc3nc(C(C(=O)NCCS(N)(=O)=O)S(C)(=O)=O)sc3c2)cc1 (stereo not drawn) [Example B31, N-tert-Butyl-4-(2-(1-(methylsulfonyl)-2-oxo-2-((2-sulfamoylethyl)amino)ethyl)-1,3-benzothiazol-6-yl)benzamide]
< 10	39			Cc1nnc(CNC(=O)C(c2nc3cc(F)c(-c4ccccc4)cc3s2)S(=O)(=O)CC(C)C)o1 (stereo not drawn) [Example B152, 2-(5-fluoro-6-phenyl-1,3-benzothiazol-2-yl)-2-(isobutylsulfonyl)-N-((5-methyl-1,3,4-oxadiazol-2-yl)methyl)acetamide]
0.5	2.6			COc1ccc(-c2ccc3sc(C(C(=O)NCCS(N)(=O)=O)S(C)(=O)=O)nc3c2)cn1 (stereo not drawn) [Example B87, 2-(5-(6-methoxy-3-pyridinyl)-1,3-benzothiazol-2-yl)-2-(methylsulfonyl)-N-(2-sulfamoylethyl)acetamide]
< 10	17500			CS(=O)(=O)C(C(=O)NCc1csc(N)n1)c1nc2ccc(-c3ccc(C(=O)N4CCOCC4)cc3)cc2s1 (stereo not drawn) [Example B137, N-((2-amino-1,3-thiazol-4-yl)methyl)-2-(methylsulfonyl)-2-(6-(4-(4-morpholinylcarbonyl)phen-yl)-1,3-benzothiazol-2-yl)acetamide]
		24	170	COCCNC(=O)c1cccc(-c2ccc3nc(C(C(=O)NCCS(N)(=O)=O)S(=O)(=O)CCC(F)(F)F)sc3c2)c1 (stereo not drawn) [Example B202, N-(2-methoxyethyl)-3-(2-(2-oxo-2-((2-sulfamoylethyl)amino)-1-((3,3,3-trifluoropropyl)sulfonyl)ethyl)benzo[d]thiazol-6-yl)benzamide]
1.8	262			CS(=O)(=O)C(C(=O)NCCS(N)(=O)=O)c1nc2ccc(-c3ccc(C(=O)N4CC[C@@H](O)C4)cc3)cc2s1 (stereo partly drawn) [Example B329, 2-(6-{4-[(3R)-3-hydroxy-pyrrolidine-1-carbonyl]phen-yl}-1,3-benzothiazol-2-yl)-2-methanesulfonyl-N-(2-sulfamoylethyl)a-cetamide]
158	30.3			CC1(O)CN(C(=O)c2ccc(-c3ccc4nc(C(C(N)=O)S(=O)(=O)Cc5ccc(OC(F)(F)F)cc5)sc4c3)cc2)C1 (stereo not drawn) [Example B362, 2-{6-[4-(3-hydroxy-3-methylazetidine-1-carbonyl)phenyl]-1,3-benzothiazol-2-yl}-2-{[4-(trifluoromethoxy)phen-yl]methanesulfonyl}a-cetamide]
